Laboratory results reported in patent publication US9938269B2, “Inhibitor compounds of phosphodiesterase type 10A” (ABBVIE INC., priority 2011, dated 2018).
Structures can show the parent of a compound that is named as a salt.

Tests used:
[1] = Determination of the microsomal half-life, rat liver microsomes; settings: rat, liver microsomes, pH 7.4
[2] = Determination of the microsomal half-life, human liver microsomes; settings: for microsomal CLint at 0.5 μM: human, liver microsomes, pH 7.4; for Human mCl (mikrosomal clearance): human liver microsomes, 0.5 μM test substance, 0.25 mg microsomal protein, pH 7.4, 37° C., NADPH
[3] = target: T1, PDE10A (human) (Homo sapiens, UniProt Q9Y233); experiment: Measurement of PDE activity (HTRF cAMP kit), human PDE10A; type: biochemical; settings: PDE enzymatic reaction, substrate 20 nM for PDE10, 60 minutes at 29 C
T1 construct: purchased BPS Bioscience
Summary of the method: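 HTRF detection of cAMP left after hydrolysis, expressed as percent of uninhibited control to derive IC50. Reaction: serially diluted inhibitor mixed with recombinant enzyme, started with 20 nM cAMP, 60 min at 29 °C in Tris-HCl pH 7.5 buffer containing MgCl2 and BSA.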

T1 sequence (Q9Y233 whole entry): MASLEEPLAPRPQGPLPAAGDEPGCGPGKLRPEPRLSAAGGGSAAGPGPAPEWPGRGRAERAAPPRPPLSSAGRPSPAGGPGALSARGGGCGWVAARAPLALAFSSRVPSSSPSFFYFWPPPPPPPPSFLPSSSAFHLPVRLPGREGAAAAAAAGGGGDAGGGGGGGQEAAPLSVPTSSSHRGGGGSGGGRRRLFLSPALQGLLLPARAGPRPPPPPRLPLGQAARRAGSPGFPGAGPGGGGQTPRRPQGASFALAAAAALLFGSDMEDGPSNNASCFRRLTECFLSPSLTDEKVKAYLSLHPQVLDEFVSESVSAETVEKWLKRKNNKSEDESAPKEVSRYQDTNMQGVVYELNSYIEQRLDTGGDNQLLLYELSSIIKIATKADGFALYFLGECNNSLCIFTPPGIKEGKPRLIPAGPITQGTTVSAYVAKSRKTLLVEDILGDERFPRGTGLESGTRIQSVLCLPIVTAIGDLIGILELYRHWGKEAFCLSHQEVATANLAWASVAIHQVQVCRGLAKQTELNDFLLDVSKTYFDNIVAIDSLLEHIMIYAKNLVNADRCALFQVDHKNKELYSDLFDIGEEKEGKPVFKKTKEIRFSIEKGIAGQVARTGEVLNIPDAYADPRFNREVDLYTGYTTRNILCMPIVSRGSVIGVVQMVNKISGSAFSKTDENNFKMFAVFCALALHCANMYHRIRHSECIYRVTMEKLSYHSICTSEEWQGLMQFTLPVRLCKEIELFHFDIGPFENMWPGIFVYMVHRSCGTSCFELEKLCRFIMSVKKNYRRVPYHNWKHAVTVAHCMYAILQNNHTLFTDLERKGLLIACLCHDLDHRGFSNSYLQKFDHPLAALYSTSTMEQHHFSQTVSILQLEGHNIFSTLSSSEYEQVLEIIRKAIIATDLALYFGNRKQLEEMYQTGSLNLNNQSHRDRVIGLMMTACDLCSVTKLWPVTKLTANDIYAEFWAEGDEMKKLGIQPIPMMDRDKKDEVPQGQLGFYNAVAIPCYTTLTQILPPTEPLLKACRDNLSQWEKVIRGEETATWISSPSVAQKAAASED

Row | SMILES | microsomal CLint at 0.5 μM [1] [µL/min/mg] | microsomal CLint at 0.5 μM [2] [µL/min/mg] | IC50 [3] [nM] | Human mCl (mikrosomal clearance) [2]
1 | O=C1c2c(N3CCOCC3)ccnc2CN1CCc1nc2ccccc2o1 [compound 417, 6-[2-(1,3-Benzoxazol-2-yl)ethyl]-4-morpholino-7H-pyrrolo[3,4-b]pyridin-5-one] | < 100 | < 100 | 100 to 200 | 
2 | O=C1c2c(-c3ccncc3)ccnc2CN1CCc1nc2ccccc2o1 [compound 418, 6-[2-(1,3-Benzoxazol-2-yl)ethyl]-4-(4-pyridyl)-7H-pyrrolo[3,4-b]pyridin-5-one] | < 100 | < 100 | 200 to 500 | 
3 | O=C(O)C(F)(F)F.O=C1c2c(-c3ccnc(F)c3)ccnc2CN1CCc1nc2ccccc2s1 [compound 421, 6-[2-(1,3-Benzothiazol-2-yl)ethyl]-4-(2-fluoro-4-pyridyl)-7H-pyrrolo[3,4-b]pyridin-5-one trifluoroacetate] | < 100 |  | < 100 | ◯
4 | O=C1c2c(-c3ccoc3)ccnc2CN1CCc1nc2ccccc2s1 [compound 422, 6-[2-(1,3-Benzothiazol-2-yl)ethyl]-4-(3-furyl)-7H-pyrrolo[3,4-b]pyridin-5-one trifluoroacetate] | 100 to 220 | < 100 | < 100 | 
5 | O=C1c2c(N3CCC4(COC4)C3)ccnc2CN1CCc1nc2ccccc2s1 [compound 424, 6-[2-(1,3-Benzothiazol-2-yl)ethyl]-4-(2-oxa-7-azaspiro[3.4]octan-7-yl)-7H-pyrrolo[3,4-b]pyridin-5-one] | < 100 | < 100 | < 100 | 
6 | O=C1c2c(N3CCOCC3)ccnc2CN1CCc1cn2ccsc2n1 [compound 425, 6-(2-Imidazo[2,1-b]thiazol-6-ylethyl)-4-morpholino-7H-pyrrolo[3,4-b]pyridin-5-one] | < 100 |  | < 100 | ◯
7 | O=C1c2c(N3CC4COCC4C3)ccnc2CN1CCc1nc2ccccc2s1 (stereo not drawn) [compound 426, 4-(1,3,3a,4,6,6a-Hexahydrofuro[3,4-c]pyrrol-5-yl)-6-[2-(1,3-benzothiazol-2-yl)ethyl]-7H-pyrrolo[3,4-b]pyridin-5-one] | < 100 | 100 to 220 | < 100 | 
8 | O=C1c2cccc(-c3cc[nH]n3)c2CN1CCc1nc2ccccc2s1 [compound 428, 2-[2-(1,3-Benzothiazol-2-yl)ethyl]-4-(1H-pyrazol-3-yl)isoindolin-1-one] | > 220 | 100 to 220 | < 100 | 
9 | O=C1c2c(-c3cc[nH]n3)ccnc2CN1CCc1nc2ccccc2s1 [compound 429, 6-[2-(1,3-Benzothiazol-2-yl)ethyl]-4-(1H-pyrazol-3-yl)-7H-pyrrolo[3,4-b]pyridin-5-one] | < 100 | < 100 | < 100 | 
10 | O=C1c2c(-c3cccnc3)ccnc2CN1CCc1nc2ccccc2s1 [compound 430, 6-[2-(1,3-Benzothiazol-2-yl)ethyl]-4-(3-pyridyl)-7H-pyrrolo[3,4-b]pyridin-5-one trifluoroacetate] | < 100 | < 100 | < 100 | 
11 | O=C1c2cccc(-c3ccncc3)c2CN1CCc1nc2ccccc2s1 [compound 431, 2-[2-(1,3-Benzothiazol-2-yl)ethyl]-4-(4-pyridyl)isoindolin-1-one] | > 220 | < 100 | 100 to 200 | 
12 | Cn1nccc1-c1ccnc2c1C(=O)N(CCc1nc3ccccc3s1)C2 [compound 432, 6-[2-(1,3-Benzothiazol-2-yl)ethyl]-4-(2-methylpyrazol-3-yl)-7H-pyrrolo[3,4-b]pyridin-5-one trifluoroacetate] | < 100 | < 100 | 100 to 200 | 
13 | O=C1c2c(-c3cscn3)ccnc2CN1CCc1nc2ccccc2s1 [compound 436, 6-[2-(1,3-Benzothiazol-2-yl)ethyl]-4-thiazol-4-yl-7H-pyrrolo[3,4-b]pyridin-5-one] | < 100 | < 100 | 200 to 500 | 
14 | Cc1ncc(-c2ccnc3c2C(=O)N(CCc2nc4ccccc4s2)C3)cn1 [compound 445, 6-[2-(1,3-Benzothiazol-2-yl)ethyl]-4-(2-methylpyrimidin-5-yl)-7H-pyrrolo[3,4-b]pyridin-5-one] | < 100 | < 100 | 100 to 200 | 
15 | O=C(O)C1CN(c2ccnc3c2C(=O)N(CCc2ccc4ccccc4n2)C3)C1 [compound 446, 1-[5-oxo-6-[2-(2-quinolyl)ethyl]-7H-pyrrolo[3,4-b]pyridin-4-yl]azetidine-3-carboxylic acid] | < 100 | < 100 | 100 to 200 | 
16 | O=C1c2c(OC3COC3)ccnc2CN1CCc1ccc2ccccc2n1 [compound 447, 4-(oxetan-3-yloxy)-6-[2-(2-quinolyl)ethyl]-7H-pyrrolo[3,4-b]pyridin-5-one] | 100 to 220 | 100 to 220 | < 100 | 
17 | COc1ccc(-c2ccncc2)c2c1C(=O)N(CCc1cn3ccccc3n1)C2 [compound 448, 2-(2-Imidazo[1,2-a]pyridin-2-yl-ethyl)-7-methoxy-4-pyridin-4-yl-2,3-dihydro-isoindol-1-one trifluoroacetate] | < 100 | < 100 | < 100 | 
18 | O=C1c2c(cccc2N2CCOCC2)CN1CCc1nc2ccccc2n1C(F)F [compound 449, 2-[2-(1-Difluoromethyl-1H-benzoimidazol-2-yl)-ethyl]-7-morpholin-4-yl-2,3-dihydro-isoindol-1-one trifluoroacetate] | 100 to 220 | 100 to 220 | 200 to 500 | 
19 | O=C1c2c(cccc2-c2ccncc2)CN1CCc1nc2ccccc2n1C(F)F [compound 450, 2-[2-(1-Difluoromethyl-1H-benzoimidazol-2-yl)-ethyl]-7-pyridin-4-yl-2,3-dihydro-isoindol-1-one trifluoroacetate] | 100 to 220 | > 220 | 200 to 500 | 
20 | O=C1c2nccc(-c3ccncc3)c2CN1CCc1ccc2ccccc2n1 [compound 451, 4-Pyridin-4-yl-6-(2-quinolin-2-yl-ethyl)-5,6-dihydro-pyrrolo[3,4-b]pyridin-7-one] | 100 to 220 | < 100 | < 100 | 
21 | O=C1c2nccc(-c3ccncc3)c2CN1CCc1cn2ccccc2n1 [compound 452, 6-(2-Imidazo[1,2-a]pyridin-2-yl-ethyl)-4-pyridin-4-yl-5,6-dihydro-pyrrolo[3,4-b]pyridin-7-one] | < 100 | < 100 | 200 to 500 | 
22 | COc1ccc(-c2cc[nH]n2)c2c1C(=O)N(CCc1cn3ccccc3n1)C2 [compound 454, 2-(2-Imidazo[1,2-a]pyridin-2-yl-ethyl)-7-methoxy-4-(1H-pyrazol-3-yl)-2,3-dihydro-isoindol-1-one] | < 100 | < 100 | 100 to 200 | 
23 | COc1ccc(-c2cccnc2)c2c1C(=O)N(CCc1cn3ccccc3n1)C2 [compound 456, 2-(2-Imidazo[1,2-a]pyridin-2-yl-ethyl)-7-methoxy-4-pyridin-3-yl-2,3-dihydro-isoindol-1-one trifluoroacetate] | 100 to 220 | < 100 | < 100 | 
24 | COc1ccc(-c2ccc(OC)c3c2CN(CCc2cn4ccccc4n2)C3=O)cc1 [compound 457, 2-(2-Imidazo[1,2-a]pyridin-2-yl-ethyl)-7-methoxy-4-(4-methoxy-phenyl)-2,3-dihydro-isoindol-1-one trifluoroacetate] | 100 to 220 | 100 to 220 | < 100 | 
25 | Cn1nccc1-c1ccnc2c1CN(CCc1ccc3ccccc3n1)C2=O [compound 459, 4-(2-Methyl-2H-pyrazol-3-yl)-6-(2-quinolin-2-yl-ethyl)-5,6-dihydro-pyrrolo[3,4-b]pyridin-7-one trifluoroacetate] | < 100 | < 100 | 200 to 500 | 
26 | COc1ccc(-c2ccnc3c2CN(CCc2cn4ccccc4n2)C3=O)cc1 [compound 461, 6-(2-Imidazo[1,2-a]pyridin-2-yl-ethyl)-4-(4-methoxy-phenyl)-5,6-dihydro-pyrrolo[3,4-b]pyridin-7-one trifluoroacetate] | > 220 | < 100 | 100 to 200 | 
27 | O=C1c2nccc(-c3cccnc3)c2CN1CCc1ccc2ccccc2n1 [compound 463, 4-Pyridin-3-yl-6-(2-quinolin-2-yl-ethyl)-5,6-dihydro-pyrrolo[3,4-b]pyridin-7-one trifluoroacetate] | < 100 | < 100 | 100 to 200 | 
28 | COc1ccc(-c2ccnn2C)c2c1C(=O)N(CCc1cn3ccccc3n1)C2 [compound 464, 2-(2-Imidazo[1,2-a]pyridin-2-yl-ethyl)-7-methoxy-4-(2-methyl-2H-pyrazol-3-yl)-2,3-dihydro-isoindol-1-one trifluoroacetate] | < 100 | < 100 | < 100 | 
29 | O=C1c2c(-c3ccncc3)ccnc2CN1CCc1cnc2ccccc2n1 [compound 465, 4-(4-Pyridyl)-6-(2-quinoxalin-2-ylethyl)-7H-pyrrolo[3,4-b]pyridin-5-one] | < 100 | < 100 | < 100 | 
